Results as given in patent publication US9403805B2, “Antiviral compounds” (Hoffmann-La Roche Inc., priority 2012, dated 2016).

What follows are compounds tested on HCV GT1b replicon (assay: HCV GT1b replicon luciferase reporter assay (2209-23 cells)). Settings: Hepatitis C virus, genotype 1a / genotype 1b; 2209-23 cells (Huh-7 with GT-1b Con1 subgenomic replicon), Renilla luciferase read 72 hours after compound addition; read-out: GT-1a - EC50 (nM) HCV, GT1b, IC50 (µM).
Format: cell-based
Excerpt: Determination of compounds HCV GT1b inhibitory replicon activity using the replicon luciferase reporter assay
The 2209-23 cell line was developed at Roche by stable transfection of the hepatoma cell line Huh-7 with a GT-1b Con1 subgenomic bicistronic replicon as previously described. Subgenomic replicon cell line was established in cured Huh7 cells, obtained from R. Bartenschlager (J Virol. 2003 March; 77 (5):3007-19) The GT-1a H77 subgenomic replicon vector pRLuc H77 1b 75 S/I, was created by replacing the nonstructural region of the GT-1b Con1 subgenomic replicon by the one of the H77 strain, except for the first 75 amino acids of the NS3 protein that are from GT-1b Conl strain. (J. Virol. 2001 77:5352-59) The GT-1a pRLuc H77 1b 75 S/I subgenomic replicon cell line was established in cured Huh7 cells, obtained from R. Bartenschlager. (J Virol. 2003 March; 77 (5):3007-19)
All the subgenomic replicon cell lines were cultured in Dulbecco's Modified Eagle Medium (DMEM-Glutamax™-I; Invitrogen Cat #10569-010). The medium was supplemented with 10% Fetal Bovine Serum (Invitrogen Cat #10082-147), 1% penicillin/streptomycin (Mediatech Cat #30-002-CI) and 500 μg/ml of G418 (Mediatech Cat #30-234-CI). Cells were maintained at 37° C. in a humidified 5% CO2 atmosphere.
2209-23 cells were plated at a cell density of 5000 cells per well in 96 well plates (Becton Dickinson, Cat #35 3296). Cells were plated in 90 μl of Dulbecco's Modified Eagle Medium (DMEM-Glutamax™-I), (Invitrogen Cat #10569-010) medium was supplemented with 5% Fetal Bovine Serum (Invitrogen Cat #10082-147), 1% penicillin/streptomycin (Mediatech Cat #30-002-CI). The pRluc H77 1b 75 SA cells were plated in 96-well plate at 3000 cells/well in DMEM-Glutamax™-I containing 5% FBS and 1% penicillin/streptomycin in 90 μl final volume. Cells were allowed to equilibrate for 24 hours at 37° C. and 5% CO2 at which time compounds were added. Compounds (or medium as a control) were added 24 hours post-plating in 3 fold dilutions at a final DMSO concentration of 1% in 10 μl volume. Renilla luciferase reporter signal was read 72 hours after addition of compounds using the Renilla Luciferase Assay System (Promega, cat #E2820). EC50 values were defined as the compound concentration at which a 50% reduction in the levels of renilla luciferase reporter was observed as compared to control samples in the absence of compound and was determined by non-linear fitting of compound dose-response data. The EC50 was approximated if maximum percentage inhibition was less than 90% and more than 70%.

| Compound | IC50 [nM] |
| --- | --- |
| CC(C)(C)OC(=O)[C@@H]1C[C@H](NC(=O)c2ccc3ccccc3c2O)CN1CC1CCCCC1 [Compound I-1, (2S,4S)-1-Cyclohexylmethyl-4-[(1-hydroxy-naphthalene-2-carbonyl)-amino]-pyrrolidine-2-carboxylic acid tert-butyl ester] | 47 |
| COC(=O)[C@@H]1C[C@H](NC(=O)c2ccc3ccccc3c2O)CN1CCC(C)(C)C [Compound I-2, (2S,4S)-1-(3,3-Dimethyl-butyl)-4-[(1-hydroxy-naphthalene-2-carbonyl)-amino]-pyrrolidine-2-carboxylic acid methyl ester] | 79 |
| CCOC(=O)[C@@H]1C[C@H](NC(=O)c2ccc3ccccc3c2O)CCN1CC1CCCCC1 [Compound I-3, (2S,4R)-1-Cyclohexylmethyl-4-[(1-hydroxy-naphthalene-2-carbonyl)-amino]-piperidine-2-carboxylic acid ethyl ester] | 51 |
| CCOC(=O)[C@@H]1C[C@H](NC(=O)c2ccc3ccccc3c2O)CN1CC1CCCCC1 [Compound I-4, (2S,4S)-1-Cyclohexylmethyl-4-[(1-hydroxy-naphthalene-2-carbonyl)-amino]-pyrrolidine-2-carboxylic acid ethyl ester] | 29 |
| O=C(N[C@H]1C[C@@H](c2nc3ccccc3o2)N(CC2CCCCC2)C1)c1ccc2ccccc2c1O [Compound I-5, 1-Hydroxy-naphthalene-2-carboxylic acid ((3S,5S)-5-benzooxazol-2-yl-1-cyclohexylmethyl-pyrrolidin-3-yl)-amide] | 52 |
| COC(=O)[C@@H]1C[C@H](NC(=O)c2ccc3ccccc3c2O)CCN1CC1CCCCC1 [Compound I-6, (2S,4R)-1-Cyclohexylmethyl-4-[(1-hydroxy-naphthalene-2-carbonyl)-amino]-piperidine-2-carboxylic acid methyl ester] | 55 |
| Cc1cnc([C@@H]2C[C@H](NC(=O)c3ccc4ccccc4c3O)CN2CC2CCCCC2)o1 [Compound I-7, 1-Hydroxy-naphthalene-2-carboxylic acid [(3S,5S)-1-cyclohexylmethyl-5-(5-methyl-oxazol-2-yl)-pyrrolidin-3-yl]-amide] | 70 |
| O=C(N[C@H]1C[C@@H](c2ncc(-c3ccccc3)o2)N(CC2CCCCC2)C1)c1ccc2ccccc2c1O [Compound I-8, 1-Hydroxy-naphthalene-2-carboxylic acid [(3S,5S)-1-cyclohexylmethyl-5-(5-phenyl-oxazol-2-yl)-pyrrolidin-3-yl]-amide] | 86 |
| O=C(N[C@H]1C[C@@H](c2ncco2)N(CC2CCCCC2)C1)c1ccc2ccccc2c1O [Compound I-9, 1-Hydroxy-naphthalene-2-carboxylic acid ((3S,5S)-1-cyclohexylmethyl-5-oxazol-2-yl-pyrrolidin-3-yl)-amide] | 114 |
| COC(=O)[C@@H]1C[C@H](NC(=O)c2ccc3ccccc3c2O)CN1CC1CCCCC1 [Compound I-10, (2S,4S)-1-Cyclohexylmethyl-4-[(1-hydroxy-naphthalene-2-carbonyl)-amino]-pyrrolidine-2-carboxylic acid methyl ester] | 120 |
| COC(=O)[C@@H]1C[C@H](NC(=O)c2ccc3ccccc3c2O)CN1Cc1ccccc1 [Compound I-11, (2S,4S)-1-Benzyl-4-[(1-hydroxy-naphthalene-2-carbonyl)-amino]-pyrrolidine-2-carboxylic acid methyl ester] | 121 |
| CCOC(=O)[C@@H]1C[C@H](NC(=O)c2ccc3ccccc3c2O)CN1CC1CCCC1 [Compound I-12, (2S,4S)-1-Cyclopentylmethyl-4-[(1-hydroxy-naphthalene-2-carbonyl)-amino]-pyrrolidine-2-carboxylic acid ethyl ester] | 129 |
| O=C(N[C@H]1C[C@@H](C(=O)NCc2ccccc2)N(CC2CCCCC2)C1)c1ccc2ccccc2c1O [Compound I-13, (2S,4S)-1-Cyclohexylmethyl-4-[(1-hydroxy-naphthalene-2-carbonyl)-amino]-pyrrolidine-2-carboxylic acid benzylamide] | 163 |
| CCOC(=O)[C@@H]1C[C@H](NC(=O)c2ccc3ccccc3c2O)CN1C(=O)C1CCCCC1 [Compound I-14, (2S,4S)-1-Cyclohexanecarbonyl-4-[(1-hydroxy-naphthalene-2-carbonyl)-amino]-pyrrolidine-2-carboxylic acid ethyl ester] | 184 |
| CC(C)NC(=O)[C@@H]1C[C@H](NC(=O)c2ccc3ccccc3c2O)CN1CC1CCCCC1 [Compound I-15, (2S,4S)-1-Cyclohexylmethyl-4-[(1-hydroxy-naphthalene-2-carbonyl)-amino]-pyrrolidine-2-carboxylic acid isopropylamide] | 187 |
| CCCNC(=O)[C@@H]1C[C@H](NC(=O)c2ccc3ccccc3c2O)CN1CC1CCCCC1 [Compound I-16, (2S,4S)-1-Cyclohexylmethyl-4-[(1-hydroxy-naphthalene-2-carbonyl)-amino]-pyrrolidine-2-carboxylic acid propylamide] | 205 |
| CCOC(=O)[C@@H]1C[C@H](NC(=O)c2ccc3ccccc3c2O)CN1CC1CCC1 [Compound I-17, (2S,4S)-1-Cyclobutylmethyl-4-[(1-hydroxy-naphthalene-2-carbonyl)-amino]-pyrrolidine-2-carboxylic acid ethyl ester] | 219 |
| CCNC(=O)[C@@H]1C[C@H](NC(=O)c2ccc3ccccc3c2O)CN1CC1CCCCC1 [Compound I-18, (2S,4S)-1-Cyclohexylmethyl-4-[(1-hydroxy-naphthalene-2-carbonyl)-amino]-pyrrolidine-2-carboxylic acid ethylamide] | 221 |
| CCNC(=O)[C@@H]1C[C@H](NC(=O)c2ccc3ccccc3c2O)CCN1CC1CCCCC1 [Compound I-19, (2S,4R)-1-Cyclohexylmethyl-4-[(1-hydroxy-naphthalene-2-carbonyl)-amino]-piperidine-2-carboxylic acid ethylamide] | 223 |
| COC(=O)[C@H]1C[C@H](NC(=O)c2ccc3ccccc3c2O)CN1CC1CCCCC1 [Compound I-20, (2R,4S)-1-Cyclohexylmethyl-4-[(1-hydroxy-naphthalene-2-carbonyl)-amino]-pyrrolidine-2-carboxylic acid methyl ester] | 233 |
| COC(=O)[C@]1(C)C[C@H](NC(=O)c2ccc3ccccc3c2O)CN1CC1CCCCC1 [Compound I-21, (2S,4S)-1-Cyclohexylmethyl-4-[(1-hydroxy-naphthalene-2-carbonyl)-amino]-2-methyl-pyrrolidine-2-carboxylic acid methyl ester] | 247 |
| CCOC(=O)[C@@H]1C[C@H](NC(=O)c2ccc3ccccc3c2O)CN1CC(C)C [Compound I-22, (2S,4S)-4-[(1-Hydroxy-naphthalene-2-carbonyl)-amino]-1-isobutyl-pyrrolidine-2-carboxylic acid ethyl ester] | 299 |
| COC(=O)[C@@H]1C[C@H](NC(=O)c2ccc3ccccc3c2N)CN1CC1CCCCC1 [Compound I-23, (2S,4S)-4-[(1-Amino-naphthalene-2-carbonyl)-amino]-1-cyclohexylmethyl-pyrrolidine-2-carboxylic acid methyl ester] | 336 |
| CCOC(=O)[C@@H]1C[C@H](NC(=O)c2ccc3cccnc3c2O)CN1CC1CCCCC1 [Compound I-24, (2S,4S)-1-Cyclohexylmethyl-4-[(8-hydroxy-quinoline-7-carbonyl)-amino]-pyrrolidine-2-carboxylic acid ethyl ester] | 367 |
| NC(=O)[C@@H]1C[C@H](NC(=O)c2ccc3ccccc3c2O)CN1CC1CCCCC1 [Compound I-25, (2S,4S)-1-Cyclohexylmethyl-4-[(1-hydroxy-naphthalene-2-carbonyl)-amino]-pyrrolidine-2-carboxylic acid amide] | 509 |
| O=C(N[C@H]1C[C@@H](C(=O)N2CCCC2)N(CC2CCCCC2)C1)c1ccc2ccccc2c1O [Compound I-26, 1-Hydroxy-naphthalene-2-carboxylic acid [(3S,5S)-1-cyclohexylmethyl-5-(pyrrolidine-1-carbonyl)-pyrrolidin-3-yl]-amide] | 640 |
| CCOC(=O)[C@@H]1C[C@@H](NC(=O)c2ccc3ccccc3c2O)CN1Cc1ccccc1 [Compound I-27, (2S,4R)-1-Benzyl-4-[(1-hydroxy-naphthalene-2-carbonyl)-amino]-pyrrolidine-2-carboxylic acid ethyl ester] | 659 |
